Experimental data taken from patent publication US9320271B2, “Microbial composition” (Rohm and Haas Company, priority 2011, dated 2016).
Values joined by “and” are separate entries in the source; they are usually repeats but may differ in a detail not shown here. Equal entries are not always repeated.

How the values were obtained:
[1] = system: Staphylococcus aureus (10788 strain); test: 15 second contact kill test / antimicrobial efficacy of actives against S. aureus in water; format: cell-based
Description: Selected materials were also tested against a representative Grant positive Staphylococcus aureus. An overnight culture of Staphylococcus aureus (10788 strain) was inoculated onto a […] Soy Agar (TSA) plate and grown for ca. 18 hrs at 37° C. The culture S. aureus was washed from the plate using sterile saline (0.85% NaCl) solution and a sterile spreader and suspended in 50 ml saline. This suspension was separated into equal volumes and centrifuged at 4000 rpm for 15 minutes. […] Here, OD620 indicates the absorbance of a sample in a cuvette of 1.0 cm path length at a wavelength of 620 nm. This bacterial stock was used for assaying against antimicrobial actives (in triplicate). The following assay describes the testing of 8 materials using 6 dilutions across half of a 96-well micro titre plate (MTP). Using this approach it is possible to assay 16 actives (without replicates) with one full dilution plate, replicating this set up in two halves of the plate columns, 1-6 and 7-12. 1M solutions of the test actives were prepared in dimethylsulphoxide (DMSO). […] Aliquots (270 μl) of the materials at 1.11 times the final concentration were dispensed into the wells of the MTP along one column (A1-H1). This MTP was labelled as the “Screening plate”. In another MTP, labelled as the “Dilution plate”, […] of D/E neutralising solution from DIFCO Composition was added to column 1. The composition of the neutralising solution was as follows: pancreatic digest of casein, 5.0 g/L; […] Dextrose, 10 g/L, sodium thioglycollate, 1.0 g/L, sodium thiosulphate, 6.0 g/L; sodium bisulphite, 2.5 g/L; […] […] From the colony number in this segment, NMBS is calculated by the formula: NMBS=log {Ncol·10^DF·100/3} Here, Ncol is the colony count, and DF is the dilution factor taken from the MTP-well corresponding to the TSA plate segment (i.e. DF may range from 1 for the quench, to 6 for the highest dilution). […] Here, OD620 indicates the absorbance of a sample in a cuvette of 1.0 cm path length at a wavelength, of 620 nm. […]

[2] = system: Escherichia coli (E. coli—ATCC #10536); test: Synergy test: high resolution MBC microtiter plate assay, phosphate buffer containing 35% dipropylene glycol, 15 seconds contact; format: cell-based; details: E. coli 10536
Excerpt: The concentrations and ratios may also vary under different test conditions or with different test methods.
One measure of synergy is the industrially accepted method described by Kull, F. C.; Eisman, P. C.; Sylwestrowicz, H. D, and Mayer, R. L., in Applied Microbiology 9:538-541 (1961), using the ratio determined by the formula: […]=Synergy Index (“SI”) wherein; QA=concentration of compound A (first component) in percent, acting alone, which produced an end point (MBC of Compound A). Qa=concentration of compound A in percent, in the mixture, which produced an end point. QB=concentration of compound B (second component) in percent, acting alone, which, produced an end point (MBC of Compound B). Qb=concentration of compound B in percent, in the mixture, which produced an end point.
When the sum of Qa/QA and Qb/QB is greater than one, antagonism is indicated. […] The lower the SI, the greater is the synergy shown by that particular mixture. The minimum biocidal concentration (MBC) of a microbicide is the lowest concentration tested under a specific set of conditions that provides complete kill of the tested microorganisms.
Synergy tests were conducted using standard microliter plate assays with phosphate buffer containing 35% dipropylene glycol (DPG). In this method, a wide range of combinations of chemicals was tested by conducting high resolution MBC assays of Component (A) in the presence of various concentrations of Component (B). High resolution MBCs were determined by adding varying amounts of microbicide to one column of a microliter plate and doing subsequent […] dilutions using an automated liquid handling, system to obtain a series of closely spaced endpoints. The MBC plate was inoculated one column at a time with the test microorganism. An aliquot of the inoculated well was transferred at 15 seconds to a plate containing a neutralizing agent (D/E Neutralizing Broth), mixed and held for 5 minutes before being transferred to a growth plate containing trypticase soy broth (TSB). The TSB plate was incubated at 37° C. and read for the presence/absence of growth at 24 hours. The lowest level tested that provided complete kill (as evidenced by no growth in the microtitre plate) of the test organisms in 15 seconds is the minimum biocidal concentration (MBC).
The synergy of the combinations of the present invention was determined against a bacterium, Escherichia coli (E. coli—ATCC #10536), at a concentration of approximately 1×10^8 it bacteria per mL. This microorganism is representative of natural contaminants in many consumer and industrial applications.

SMILES: C=C(C)C1CC=C(CO)CC1 (stereo not shown) [(4-(prop-1-en-2-yl)cyclohex-1-enyl)methanol]
- S. aureus 6538 Log Reduction ([1]; 0.2% perillyl alcohol alone): 0.22
- S. aureus 6538 Log Reduction ([1]; 0.25 Perillyl alcohol alone): 0.5
- SI (Synergy Index) ([2]; at Qa and Qb, less than one = synergy): 1.00
- MBC of the component acting alone (QA / QB; Qa or Qb where the other component is 0) ([2]; complete kill in 15 seconds, component alone): 0.5 weight % and 0.3 weight %
